The target in assay [1] is T1, recombinant hMAO-A (Homo sapiens, UniProt P21397).
T1 construct: purchased Fluka-Sigma-Aldrich s.r.l; (Italy); host or cells: Baculovirus infected BT1 cells
T1 sequence (P21397 1-527): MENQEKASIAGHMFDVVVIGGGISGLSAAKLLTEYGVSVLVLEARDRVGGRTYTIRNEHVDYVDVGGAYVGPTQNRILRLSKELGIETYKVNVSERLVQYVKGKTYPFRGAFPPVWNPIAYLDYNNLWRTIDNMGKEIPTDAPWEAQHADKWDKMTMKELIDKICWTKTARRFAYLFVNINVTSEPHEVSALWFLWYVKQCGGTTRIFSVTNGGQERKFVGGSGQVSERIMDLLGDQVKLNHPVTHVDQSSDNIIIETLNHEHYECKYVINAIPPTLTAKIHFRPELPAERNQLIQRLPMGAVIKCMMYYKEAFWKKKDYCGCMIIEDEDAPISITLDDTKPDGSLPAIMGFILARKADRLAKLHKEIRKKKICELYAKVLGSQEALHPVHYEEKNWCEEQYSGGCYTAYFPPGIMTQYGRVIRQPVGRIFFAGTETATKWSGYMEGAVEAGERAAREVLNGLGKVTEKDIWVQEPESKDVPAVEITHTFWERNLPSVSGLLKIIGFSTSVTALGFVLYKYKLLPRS
The assay can be described thus: hMAO-A activity assay (kynuramine, fluorimetric). It counts as biochemical. The procedure:
Human recombinant hMAO-A and hMAO-B expressed in Baculovirus infected BT1 cells (5 mg/mL) and horseradish peroxidases were purchased from Fluka-Sigma-Aldrich s.r.l. (Italy). A Cary Eclipse fluorimeter (Varian Inc., Palo Alto, CA, USA) was used for fluorescence measurements. […] At first, the peroxidase-coupled continuous assay that detect the H2O2 generation rate was considered. It uses the Amplex Red reagent as the fluorogenic substrate for horseradish peroxidase.
By applying this method, hMAO activity assays were performed in K/Pi 0.1 M, EDTA 1 mM (total volume: 200 μL; pH 7.4, T = 37 °C), in the presence and in absence of various concentrations of the different compounds (0.2–20 μM and 2–50 μM in the case of hMAO–B and hMAO-A, respectively).
MAOs stock solutions were diluted with assay buffer in the presence or absence of the tested compound to obtain a final concentration of 0.005 mg/mL for MAO-A and 0.010 mg/mL for MAO-B; then, kynuramine (10–300 μM final concentration) was added to the assay solution. After 45–60 min of incubation at 37 °C, the reaction was stopped by the addition of 2 M NaOH (80 μL) and 480 μL of distilled water. Kynuramine deaminated by MAO spontaneously cyclizes to provide 4-hydroxyquinoline, the amount of which was determined by the fluorescence intensity of the peak of its emission spectra (λexc = 330 nm and λem 330–530 nm). Then, the rate of reaction was calculated using a specific calibration curve (in the presence of the same amount of the tested compound) built with the standard 4-hydroxyquinoline.
Under these experimental conditions, the Michaelis–Menten equation for rate of reaction, can be simplified as follows: V ≈ (Vmax/KM) [E]0[S]0 [49]. In the presence of an inhibitor, one or both the kinetic parameters, KM and Vmax, might be affected by its presence, depending on the inhibition mechanism. In particular, in the presence of a reversible inhibitor, both the kinetic parameters could be affected, and the apparent kinetic parameter would then become: KM I = KM,0 (1 + [I]/Ki)/(1 + [I]/(αKi)), and VmaxI = Vmax0/(1 + [I]/(αKi)), where α is the factor indicating how much the dissociation constant of the enzyme-substrate-I complex is different from that of the enzyme–I complex (also named Ki). Consequently, the ratio of the initial rate of reaction in the absence (Vo) and in the presence (VI) of the tested compound (Vo/VI) can be simplified to the ratio of (Vmax/KM)o/(Vmax/KM)I ≈ (1 + [I]/Ki).
To study the mechanism of inhibition, the steady-state kinetic parameters (Vmax and Km) of MAO-A and MAO-B were determined by performing experiments at different substrate concentrations and in the absence and presence of different concentrations of the tested compound. Vmax and Km were calculated by fitting the Michaelis–Menten equation to the experimental data (initial rate of reactions vs. substrate concentrations), with Sigma Plot software, version 9.0 (Jandel Scientific, San Rafael, CA, USA).

In assay [2] the test system is ROS production in HepG2 cells. The assay can be described thus: Intracellular ROS generation rate (DCF-DA). The settings on record: 5 µM, 30 min; for ROS generation rate (oxidation rate of DCF): both in the presence and absence of antimycin A (10 µM); for effect on antimycin A-induced ROS: antimycin A 10 µM. It counts as cell-based, human. The method, then: Thus, on the basis of the hMAO-B inhibitory potency and on the Nrf2 nuclear translocation results, the most promising compounds 2 and 3 were chosen for the evaluation of their antioxidant activity in the human hepatic HepG2 cells, a valuable cellular system to assess antioxidant properties of the compounds [43, 44]. CAPE and pioglitazone were also tested as reference compounds. HepG2 cells were pre-loaded with dichlorofluorescein diacetate (DCF-DA), a fluorescent probe to detect ROS generation. […] Immediately, antimycin A (10 µM), an inhibitor of the complex III of the mitochondrial electron transport chain, was also added as an ROS inducer. The oxidation rate of DCF, that is, the generation rate of ROS, was detected for 30 min, and for each sample, the corresponding control was also run.
HepG2 cells (human hepatocellular carcinoma) were purchased from the American Type Culture Collection (ATCC HB-8065). Cells were grown in MEM (M0894, Merck Life Sciences S.r.l., Milan, Italy) supplemented with 2.2 g/L NaHCO3 (S5761, Merck Life Sciences S.r.l., Milan, Italy), 100 U/mL penicillin, 100 μg/mL streptomycin and 0.25 μg/mL amphotericin B (A5955, Merck Life Sciences S.r.l., Milan, Italy) and 10% foetal calf serum (F7524, Merck Life Sciences S.r.l., Milan, Italy). Cells were cultured at 37 °C in a humidified atmosphere incubator containing 5% carbon dioxide in air.
The intracellular production of ROS was detected via a fluorometric method using 2′,7′-dichlorofluorescein diacetate (D6883, Merck Life Sciences S.r.l., Milan, Italy) as probe. HepG2 cells (6 × 10^3/well) were seeded into a 96-well culture plate in 200 µL of a complete growth medium and incubated for 48 h in standard conditions. The medium was then removed, and cells were washed with 5 mM of PBS–glucose. Then, cells were loaded with 10 μM of 2′,7′-dichlorofluorescein diacetate in 5 mM of PBS–glucose at 37 °C in the dark for 20 min, washed with 5 mM of PBS–glucose, treated with the test compounds at indicated concentrations in 5 mM of PBS–glucose and then analysed. Fluorescence intensity was recorded for 30 min at λemx = 485 nm and λem = 527 nm, using a Victor X3 Multilabel plate reader (Perkin Elmer). The rate of ROS generation was calculated relative to untreated cells (controls) after subtraction of autofluorescence value. Results were presented as the mean values of at least three independent experiments performed with six replicates.

Setting [3] is: kynuramine [S] = 10 µM, pH 7.4, 37 °C, mean ± S.D., read-out: hMAO-A Ki.

By Ki is commonly meant the equilibrium dissociation constant of an inhibitor or competing ligand from its target.

“Also recorded” adds a separate entry of the source. Read-outs that look alike come from different tables or passages of the source.

Consider `CCc1ccc(CCOc2ccc(CC3SC(=O)NC3=O)cc2)nc1` (centres unmarked) [Pioglitazone, reference compound], for which the Ki in assay [1] (setting [3]) is above 100 µM. The “ROS generation rate (oxidation rate of DCF)” value (“ROS generation rate” below) in assay [2] is listed as “did not show any effect on the ROS generation rate”.
As for `O=C(/C=C/c1ccc(O)c(O)c1)Oc1ccc(CC2SC(=O)NC2=O)cc1` (centres unmarked) [Compound 2, 4-((2,4-Dioxothiazolidin-5-yl)methyl)phenyl (E)-3-(3,4-Dihydroxyphenyl)acrylate], the Ki in assay [1] (setting [3]) was 35 ± 4 µM. Besides, in assay [2], the “ROS generation rate” value was “highest antioxidant potency; also recorded: significantly reduced cellular ROS content” and the “effect on antimycin A-induced ROS” value is reported as “almost abolish the effect of antimycin A stimulus”.
As for `O=C(/C=C/c1ccc(O)c(O)c1)OCCc1ccccc1` [CAPE, caffeic acid phenethyl ester, reference compound], the Ki in assay [1] turned out to be 12 ± 2 µM. Besides, in assay [2], the “ROS generation rate” value is recorded as “strongly reducing the oxidation rate of DCF” and the “effect on antimycin A-induced ROS” value was “almost abolish the effect of antimycin A stimulus”.
